These are literature values, as cited in US20210299023A1, “COMPOSITIONS AND METHODS FOR HAIR GROWTH” (Allergan, Inc., priority 2010, published 2021).

Data set [1] concerns eyelash. Conditions: healthy patients.
In data set [2] the test system is bald scalp of macaques. Conditions: 0.05% latanoprost.

For the molecule `CCNC(=O)CCC/C=C\C[C@@H]1[C@@H](/C=C/[C@@H](O)CCc2ccccc2)[C@H](O)C[C@@H]1O` [Bimatoprost, bimatoprost], in data set [1], the eyelash growth entry is “increased length, thickness, and darkness”.

As for `CC(C)OC(=O)CCC/C=C\C[C@@H]1[C@@H](CC[C@@H](O)CCc2ccccc2)[C@H](O)C[C@@H]1O` [latanoprost], the hair growth result in data set [2] was “significant hair growth”. Besides, the “density and thickness of hair” value in data set [2] (after 3 months of treatment) was “increased significantly”.
